Laboratory results as given in patent publication EP2601945A1 (Thomale, Jürgen, priority 2011, dated 2013).

System: Pt-GG adducts in DNA
Test: In vivo screening for cis-platin uptake inhibitors and DPH co-administration, ICA of Pt-GG adducts
Parameters: species or system mice
Conditions: 24 h; for inhibition of DNA platination in the three target cell types: independent of dosing (quinine 100 or 50 mg/kg, butylscopolamine 20 or 10 mg/kg) i.p. 1 h before cis-platin 10 mg/kg
Procedure: The sacrificed animals were immediately dissected. Kidneys and lungs were submerged in embedding medium (Tissue-Tek O.C.T. Compound) and frozen in liquid nitrogen. Cochleae were dissected and fixed by intralabyrinthine perfusion with Carnoy's solution (3 hours; for DNA adduct staining) or with formaldehyde (4 % in PBS; 1 hour; for OCT protein staining). Cochleae were decalcified in EDTA solution (10 % w/v in PBS) for 3 days and then placed in sucrose solutions (5 % in PBS for 12 hours and 15 % in PBS for 5 hours). After that samples were imbedded in Tissue-Tek medium, frozen and cryosections of 10 µm cut.
Frozen tissue sections of the inner ear or kidneys on ImmunoSelect slides were fixed in methanol at -20°C for at least 2 hours or overnight and then rehydrated for 10 minutes in PBS, at room temperature. To provide better antibody penetration in the tissue structures the samples underwent alkaline permeabilisation of cytoplasmic and nuclear membranes for 5 minutes at 0°C, followed by washing in PBS at room temperature for 5 minutes. The proteolytic cleavage of cytoplasmic and nuclear proteins was performed in two steps. At first, a pre-warmed pepsin solution (60 µg /ml for cell culture or 100 µg/ml for tissue sections in PBS/HCl) was applied onto the tissue sections and incubated for 10 minutes at 37°C in a humidified chamber. The incubation with pepsin was followed by washing in PBS for 10 minutes at room temperature. In a second step tissue sections were incubated with pre-warmed proteinase K solution (40 µg/ml for cell cultures or 50-100 µg /ml for tissue sections in proteinase K buffer) for 10 minutes at 37°C in a humidified chamber. Subsequently the sections were washed in 0.2 % glycine in PBS for 10 minutes at room temperature. Non-specific binding of the antibodies was inhibited by incubation with a blocking solution of 1 % casein in PBS for 30 minutes at room temperature. The samples were then incubated with a monoclonal antibody (R-C18, Liedert et al., 2006) specific for Pt-GG adducts in DNA (0.1 µg/ml in 0.1 % BSA/PBS) over night at 4°C in the humidified chamber. Subsequently, the slides were washed in 0.05 % Tween 20 in PBS for 5 minutes at room temperature and then in PBS for 5 minutes. The incubation with secondary Cy3-labeled rabbit anti-(rat Ig) antibodies, was performed (0.2 µg/ml in 0.1 % BSA/PBS) for 60 minutes at 37°C in the humidified chamber, followed by washing in 0.05 % Tween 20 in PBS for 5 minutes at room temperature and then in PBS for 5 minutes. The nuclear DNA was counterstained with DAPI (1 µg/ml in PBS) for 30 minutes at room temperature. The slides were then washed in PBS. Finally, the samples were embedded with a densification compound "[…]". The quantification of immuno- and DNA-fluorescence was performed by means of a microscope-coupled digital image analysis system ACAS 6.0 Cytometry Analysis System. Adduct levels in the nuclear DNA of individual cells were calculated by normalizing antibody-derived fluorescence signals to the corresponding DNA content of the same nucleus, and were expressed as arbitrary fluorescence units (AFUs). Data were assigned to specific cell types as determined by histochemistry.
The mice were separated into two groups for pretreatment with low or high doses of the test compounds. […] The low dose group received half the dose of the high dose group (50, 50, 30 or 10 mg/kg, respectively). […] Cochleae and kidneys were dissected for immunostaining and ICA analyses of Pt-GG adduct levels in specific cell types (Figure 8). In tissue sections from mice pretreated with quinine or butylscopolamine no inhibition of DNA platination was observed, independent of the dosing, in either of the three target cell types (renal tubulus epithelium cells (Figure 8 A), cochlear marginal cells (Figure 8B) and outer hair cells (Figure 8 C)). […]

Row | SMILES | inhibition of DNA platination in the three target cell types | reduction of adduct levels in all three target cell types (high dose (ranitidine 100 mg/kg) i.p. 1 h before cis-platin 10 mg/kg, renal tubulus epithelium, cochlear marginal and outer hair cells)
1 | CCCC[N+]1(C)[C@@H]2C[C@@H](OC(=O)[C@H](CO)c3ccccc3)C[C@H]1[C@@H]1O[C@@H]12 (stereo partly drawn) [butylscopolamine] | no inhibition | 
2 | C=C[C@H]1C[N@@]2CC[C@H]1C[C@H]2[C@H](O)c1ccnc2ccc(OC)cc12 [quinine] | no inhibition | 
3 | CNC(=C[N+](=O)[O-])NCCSCc1ccc(CN(C)C)o1 [ranitidine] |  | 15 - 20%
